Reference: US9770421B2, “Uses for idebenone and related benzoquinones in metabolic disorders and other PPAR α/γ related diseases and conditions” (INDANIO BIOSCIENCE INC., priority 2013, dated 2017)
“Also recorded” adds a separate entry of the source.

Key:
hPPARδ/β = molecular target: T1, hPPARδ/β (Homo sapiens, UniProt Q03181); assay: HEK293 cell culture luciferase reporter assay, hPPARδ/β; conditions: HEK293
T1 sequence (Q03181 143-441): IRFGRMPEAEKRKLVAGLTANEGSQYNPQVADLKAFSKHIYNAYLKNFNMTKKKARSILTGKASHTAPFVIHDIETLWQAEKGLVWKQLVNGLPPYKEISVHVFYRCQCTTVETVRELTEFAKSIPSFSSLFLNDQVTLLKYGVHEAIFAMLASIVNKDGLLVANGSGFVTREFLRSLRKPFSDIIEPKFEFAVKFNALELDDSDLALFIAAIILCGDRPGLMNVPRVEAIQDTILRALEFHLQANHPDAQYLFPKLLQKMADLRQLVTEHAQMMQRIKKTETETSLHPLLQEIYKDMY

hPPARγ [1] = molecular target: T2, hPPARγ (Homo sapiens, UniProt P37231); assay: PPARγ ligand trap (LT) zebrafish GFP reporter screen/assay; format: in vivo; parameters: pLT PPARα (aa 178-468) and pLT PPAR γ (aa 188-477) lines; expressed in transfected cells; host or cells: transgenic zebrafish embryos (heat-induced ligand-trap line); conditions: for GFP reporter activation in LT-PPARγ embryos: transgenic embryos, 48 hpf images
T2 sequence (P37231 188-477 isoform P37231-2): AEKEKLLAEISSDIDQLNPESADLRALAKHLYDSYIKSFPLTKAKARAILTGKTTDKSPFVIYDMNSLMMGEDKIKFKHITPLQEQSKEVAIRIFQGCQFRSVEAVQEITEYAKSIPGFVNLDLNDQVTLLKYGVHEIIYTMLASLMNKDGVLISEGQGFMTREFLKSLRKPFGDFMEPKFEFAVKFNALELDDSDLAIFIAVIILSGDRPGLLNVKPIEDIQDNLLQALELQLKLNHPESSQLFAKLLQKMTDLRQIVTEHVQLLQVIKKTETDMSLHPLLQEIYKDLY
Protocol: Digested DNA was adjusted with 0.1% phenol red. 4.6 nl of DNA solution was injected into the blastomeres of early one-cell stage embryos.
F0 fish were crossed with WT fish to identify germ-line transformed animals, as determined by agonist treatments and GFP expression. F1 progeny showing strong and consistent GFP responses were selected for F2 homozygote production. To avoid reporter GFP silencing of stable transgenic LT lines, homozygous fish showing strong and consistent GFP responses were selected for continued propagation of next generations.
PPARγ ligand trap zebrafish screens were performed under optimized conditions in 96-well format using the ImageXpress Velos Laser Scanning Cytometer. 1 or 2 dpf embryos were heat induced (28→37° C.) for 30 minutes, de-chorionated and then arrayed in 96-well plates (5 per well). Embryo water (0.075 g/L NaHCO3, 0.018 g/L Sea salt, 0.0084 g/L CaSO42H2O) was removed and 200 μl of fresh embryo water/well including dissolved small molecules or solvent was added.
Also included was the CoQ10 analog idebenone.

[2] = system: diet-induced obese C57BL/6J male mice; assay: Diet-induced-obese (DIO) mouse study; format: in vivo
Protocol: Mouse-based biomedical research was performed by the Jackson Laboratory to test the efficacy of idebenone in a diet-induced-obese (DIO) mouse model and approved by the Institutional Animal Care and Use Committee (IACUC). To test the efficacy of idebenone in a db/db mouse model experiments were performed at the Univerity of Torotno and were approved by the Animal Care Committee at the University of Toronto.
DIO study: Forty four (44) diet-induced obese C57BL/6J male mice (started on high fat diet at the age of 6 weeks) were used at 16 wks of age. The mice were ear notched for identification using the standard mouse ID format. Mice were housed at a density of 3-4 per cage in polycarbonate cages, which were both individually and positively ventilated. Bed-o'Cobs® corn cob bedding was provided and was changed every two weeks or as needed.
The animal room was lighted entirely with artificial fluorescent lighting on controlled 12 hr light/dark cycle (6 a.m. to 6 p.m. light). The normal temperature and relative humidity ranges in the animal rooms were maintained at 22±4° C. and 50±15%, respectively. The animal room was set for 15 air exchanges per hour. Filtered tap water acidified to a pH of 2.5 to 3.1 was provided ad libitum. High fat diet (60 kcal %) was provided ad libitum. Following a 2 week acclimation, 32 mice were chosen based on desired body weight range. Remaining mice were euthanized. Mice were randomized by body weight into four treatment groups (n=8) by body weight and non-fasting blood glucose taken three days prior to the start of dosing. Body weights, non-fasting blood glucose, and insulin were measured before dosing. Dosing occurred for 5 days. Fasting blood glucose and insulin were measured at the end of dosing (mice were fasted overnight on day 5, and insulin and blood glucose was measured on day 6). Mice were euthanized by CO2 euthanasia. An aliquot of whole blood was processed to measure insulin.

hPPARγ [3] = molecular target: T2, hPPARγ; assay: HEK293 cell culture luciferase reporter assay, hPPARγ
[4] = system: GFP-expressing leukocytes recruited in response to CuSO4; assay: Zebrafish inflammation assay (CuSO4); format: in vivo
Protocol: Assay was performed as described in [47]. Fifteen dechorionated 55 hpf (hours post fertilization) embryos were transferred in each well of 6-well plates in 6 ml of embryo water. Idebenone was added at increasing concentrations (0.25, 0.75, 1.5, 3 and 5 μM). Embryos were incubated in the dark for 1 hr at 28 C, followed by a second 40 min incubation with copper sulfate (CuSO4) at a final concentration of 10 μM at 28 C in the dark. Embryos were then transferred to Eppendorf tubes and fixed in 4% paraformaldehyde in 1×PBS overnight at 4 C in the dark. Numbers of GFP+ cells were counted along the lateral line/neuromast clusters.
Previous studies have shown that PPAR agonists have anti-inflammatory properties, and can be used to treat a variety of inflammatory responses. To test if this is also true for idebenone, we used a zebrafish model of inflammation. Exposure of fish larvae to copper sulfate causes non-invasive damage to neuromast cells, which form external clusters along the lateral midline. This inflammation can be visualized via the recruitment of GFP-expressing leukocytes. As expected, this recruitment of GFP positive cells could be alleviated by addition of the known anti-inflammatory agent ibuprofen (FIG. 11).

[5] = gavage twice daily for 5 days, 50 mpk idebenone, 30 mpk rosiglitazone

COC1=C(OC)C(=O)C(CCCCCCCCCCO)=C(C)C1=O [Idebenone, 2-(10-hydroxydecyl)-5,6-dimethoxy-3-methyl-2,5-cyclohexadiene-1,4-dione]
Response of PPARδ/β in cultured cells (hPPARδ/β): no response
Hit activating the PPARγ ligand trap reporter fish line (hPPARγ [1]; Enzo FDA approved drug library, screened at 1, 3 and 10 μM): hits
Concentration yielding maximal activation in fish reporter system (hPPARγ [1]; in vivo): ≥ 4 µM
GFP reporter activation in LT-PPARγ embryos (hPPARγ [1]): more limited GFP expression in cells of the blood, epidermis and CNS
GFP reporter activation in LT-PPARγ embryos (hPPARγ [1]; listed as idebenone): weaker and less widespread than responses to rosiglitazone or pioglitazone; also recorded: dual agonists for PPARα and PPARγ
EC50 (hPPARγ [1]; zebrafish ligand trap, read-out: EC50 in fish): 2 µM
Insulin resistance (HOMA-IR) ([2]; 50 mpk idebenone twice daily for 5 days): clear improvement
Blood glucose levels [2, 5]: trend towards lowered blood glucose levels; also recorded: lowers
Fasting insulin levels [2, 5]: reduction in fasting insulin levels; also recorded: lowers
EC50 (hPPARγ [3]): 2.5 µM
Maximum activation level versus full agonist, PPARγ (hPPARγ [3]; HEK293, full agonist rosiglitazone): significantly lower than those obtained using the full agonists
Recruitment of GFP positive leukocytes (anti-inflammatory activity) ([4]; 10 μM CuSO4, 55 hpf embryos): robust anti-inflammatory agent; also recorded: anti-inflammatory activity
Concentration at which anti-inflammatory activity is detectable ([4]; idebenone 0.25-5 μM tested): sub micromolar
